According to US20170042955A1, “Novel Anti-Fungal Composition” (priority 2014, published 2017):

How the values were obtained:
C. albicans = assay: Antifungal activity by modified Kerby-Bauer disc method; format: cell-based, Candida albicans
Protocol: • Susceptibility disks (5 mm in diameter) were impregnated with 0.5 mg of desired compound(s)/extract dissolved in DMSO, and placed on Sabouraud dextrose agar plates separately inoculated with the C. albicans and C. glabrata. […] Disc containing only DMSO was used as a negative control. • Anticandidal activity against Candida species: • Dose dependent anti-candidal activity was observed up on treatment using Lawsoniainermisextract against tested C. albicans and C. glabrata (Table 1).

[1] = tested on: proteinase of C. albicans NCIM 3074; assay: Protease inhibitory activity, native gel electrophoresis (casein zymogram); format: cell-based, Candida albicans; settings: 100 μg mL-1 Lawsone; 24-48 h at 37° C.; FIG. 6
Protocol: (§1) C. albicans NCIM 3074 culture was grown in Sabouraud broth at 37° C. for 12 h. The culture was centrifuged at 7000 rpm for 5 mm to pellet the cells. The cell pellet was washed twice with normal saline and centrifuged to collect the pellets. 100 μL of Candida albicans cell suspension was added to proteinase induction medium containing 1% glucose, 3% yeast carbon base and 1% BSA (Bovine Serum Albumin). […] This was added to respective test tubes immediately after the inoculation of culture. The mixture was incubated for 24-48 h at 37° C. in a shaker at 150 rpm. Culture broth was centrifuged at 7000 rpm for 15 min to remove cells. Cells were lysed and cell lysis was used for zymographic studies after protein estimation. Zymogram was performed with 1% casein incorporated in the acrylamide gel to detect the proteinase inhibition activity. The proteinase inhibitory activity was indicated by no cleavage of casein (no band formation) and it can be compared to complete cleavage of casein by proteinases (white band formation) in control groups. […] Subsequently, 1 ml of 60% perchloric acid was added and the final volume was made to 9.1 ml using distilled water to this 0.5 ml of molybdate II reagent and 0.4 ml ANSA reagent mixture was added. The tubes were shaken well and heated in a boiling water bath for 8 mm exactly. The blue color developed was read using spectrophotometer at 680 nm.

[2] = tested on: Phospholipase of C. albicans; assay: Phospholipase inhibitory activity, spectrophotometric analysis; format: cell-based, Candida albicans; settings: Lawsone 100 μg/ml
Protocol: as §1

Candida sp. = settings: literature study (13); cited from earlier work

Q: Which “Inhibition of candidal growth” value (C. albicans; C. albicans, all three concentrations 50, 100 and 200 μg/ml, FIG. 1) does the source give for `O=C1C=C(O)C(=O)c2ccccc21` [Lawsone] here?
A: Complete inhibition of candidal growth

Q: What about the zone of inhibition at 50 µg/disc (C. albicans; Candida albicans) of the same molecule?
A: 14 mm

Q: And the zone of inhibition at 100 µg/disc (C. albicans; Candida albicans)?
A: 16 mm

Q: And the zone of inhibition at 200 µg/disc (C. albicans; Candida albicans)?
A: 17 mm

Q: And the “Zymogram result, casein cleavage” value [1]?
A: intact Casein (no band/less intense band formation)

Q: What about the “% Inhibition of Phospholipase Enzyme Activity” value ([2]; compared to Control) of the same molecule?
A: 77.78%

Q: And the “Phospholipase Enzyme Activity (O.D)” value ([2]; read at 680 nm)?
A: 0.02 O.D

Q: What about the “Activity on Candida sp.” value (Candida sp.) of the same molecule?
A: there isn't appreciable activity
